Measured values published in PMC12748989 (Nature Communications, 2025).

Assays:
[1] = system: MDA-MB-231 cells
[2] = system: PBMC; settings: 12.5 µM

Q: For CC[C@H](C)[C@H](N)C(=O)N[C@@H](CC(N)=O)C(=O)N[C@@H](CC(C)C)C(=O)N[C@@H](CCCCN)C(=O)N[C@@H](C)C(=O)N[C@@H](CC(C)C)C(=O)N[C@@H](C)C(=O)N[C@@H](C)C(=O)N[C@@H](CC(C)C)C(=O)N[C@@H](C)C(=O)N[C@@H](CC(N)=O)C(=O)N[C@@H](CCCCN)C(=O)N[C@H](C(=O)N[C@@H](CC(C)C)C(N)=O)[C@@H](C)CC [N11], which “Average (percentage cell inhibition), Dmastoparan MDA-MB231 12.5uM” value [1] is on record?
A: 40.5108%

Q: And the “Average (percentage cell inhibition), Mastoparan PBMC” value [2]?
A: 4.624%

Q: CC[C@H](C)[C@H](N)C(=O)N[C@@H](CC(N)=O)C(=O)N[C@@H](Cc1ccc(O)cc1)C(=O)N[C@@H](CCCCN)C(=O)N[C@@H](C)C(=O)N[C@@H](CC(C)C)C(=O)N[C@@H](C)C(=O)N[C@@H](C)C(=O)N[C@@H](CC(C)C)C(=O)N[C@@H](C)C(=O)N[C@@H](CCCCN)C(=O)N[C@@H](CCCCN)C(=O)N[C@H](C(=O)N[C@@H](CC(C)C)C(N)=O)[C@@H](C)CC [Y3] was tested. Which “Average (percentage cell inhibition), Dmastoparan MDA-MB231 12.5uM” value [1] did it give?
A: 39.9685%

Q: What about the “Average (percentage cell inhibition), Mastoparan PBMC” value [2] of the same compound?
A: 5.097%

Q: Which “Average (percentage cell inhibition), Dmastoparan MDA-MB231 12.5uM” value [1] does the source give for CC[C@H](C)[C@H](N)C(=O)N[C@@H](Cc1ccc(O)cc1)C(=O)N[C@@H](CC(C)C)C(=O)N[C@@H](CCCCN)C(=O)N[C@@H](C)C(=O)N[C@@H](CC(C)C)C(=O)N[C@@H](C)C(=O)N[C@@H](C)C(=O)N[C@@H](CC(C)C)C(=O)N[C@@H](C)C(=O)N[C@@H](CCCCN)C(=O)N[C@@H](CCCCN)C(=O)N[C@H](C(=O)N[C@@H](CC(C)C)C(N)=O)[C@@H](C)CC [Y2] here?
A: 75.0702%

Q: What about the “Average (percentage cell inhibition), Mastoparan PBMC” value [2] of the same compound?
A: 57.84%

Q: What does the source list for CC[C@H](C)[C@H](N)C(=O)N[C@@H](CC(N)=O)C(=O)N[C@@H](CC(C)C)C(=O)N[C@@H](CCCCN)C(=O)N[C@@H](C)C(=O)N[C@@H](CC(C)C)C(=O)N[C@@H](C)C(=O)N[C@@H](C)C(=O)N[C@@H](CC(N)=O)C(=O)N[C@@H](C)C(=O)N[C@@H](CCCCN)C(=O)N[C@@H](CCCCN)C(=O)N[C@H](C(=O)N[C@@H](CC(C)C)C(N)=O)[C@@H](C)CC [N9]?
A: Average (percentage cell inhibition), Dmastoparan MDA-MB231 12.5uM [1]: 3.242%; Average (percentage cell inhibition), Mastoparan PBMC [2]: 3.083%

Q: For CC[C@H](C)[C@H](N)C(=O)N[C@@H](CC(N)=O)C(=O)N[C@@H](CCC(N)=O)C(=O)N[C@@H](CCCCN)C(=O)N[C@@H](C)C(=O)N[C@@H](CC(C)C)C(=O)N[C@@H](C)C(=O)N[C@@H](C)C(=O)N[C@@H](CC(C)C)C(=O)N[C@@H](C)C(=O)N[C@@H](CCCCN)C(=O)N[C@@H](CCCCN)C(=O)N[C@H](C(=O)N[C@@H](CC(C)C)C(N)=O)[C@@H](C)CC [Q3], which “Average (percentage cell inhibition), Dmastoparan MDA-MB231 12.5uM” value [1] is on record?
A: 20.3646%

Q: And the “Average (percentage cell inhibition), Mastoparan PBMC” value [2]?
A: 10.4738%

Q: CC[C@H](C)[C@H](N)C(=O)N[C@@H](CC(N)=O)C(=O)N[C@@H](CC(C)C)C(=O)N[C@@H](CCCCN)C(=O)N[C@@H](C)C(=O)N[C@@H](CC(C)C)C(=O)N[C@@H](C)C(=O)N[C@@H](C)C(=O)N[C@H](C(=O)N[C@@H](C)C(=O)N[C@@H](CCCCN)C(=O)N[C@@H](CCCCN)C(=O)N[C@H](C(=O)N[C@@H](CC(C)C)C(N)=O)[C@@H](C)CC)[C@@H](C)CC [I9] was tested. Which “Average (percentage cell inhibition), Dmastoparan MDA-MB231 12.5uM” value [1] did it give?
A: 25.9927%

Q: What about the “Average (percentage cell inhibition), Mastoparan PBMC” value [2] of the same compound?
A: 12.8506%

Q: With CC[C@H](C)[C@H](N)C(=O)N[C@@H](CC(N)=O)C(=O)N[C@@H](CC(C)C)C(=O)N[C@@H](CCCCN)C(=O)N[C@@H](C)C(=O)N[C@@H](CC(C)C)C(=O)N[C@@H](C)C(=O)N[C@@H](C)C(=O)N[C@@H](CC(C)C)C(=O)N[C@@H](CCCNC(=N)N)C(=O)N[C@@H](CCCCN)C(=O)N[C@@H](CCCCN)C(=O)N[C@H](C(=O)N[C@@H](CC(C)C)C(N)=O)[C@@H](C)CC [R10] as the compound, how does the “Average (percentage cell inhibition), Dmastoparan MDA-MB231 12.5uM” value [1] read?
A: 11.5132%

Q: And the “Average (percentage cell inhibition), Mastoparan PBMC” value [2]?
A: 5.821%

Q: With CC[C@H](C)[C@H](N)C(=O)N[C@@H](CC(N)=O)C(=O)N[C@@H](CC(C)C)C(=O)N[C@@H](CCCCN)C(=O)N[C@@H](C)C(=O)N[C@@H](CC(C)C)C(=O)N[C@@H](C)C(=O)N[C@@H](C)C(=O)N[C@@H](CC(C)C)C(=O)N[C@@H](C)C(=O)N[C@@H](CCC(N)=O)C(=O)N[C@@H](CCCCN)C(=O)N[C@H](C(=O)N[C@@H](CC(C)C)C(N)=O)[C@@H](C)CC [Q11] as the compound, how does the “Average (percentage cell inhibition), Dmastoparan MDA-MB231 12.5uM” value [1] read?
A: 41.2471%

Q: What about the “Average (percentage cell inhibition), Mastoparan PBMC” value [2] of the same compound?
A: 14.9552%

Q: How did the “Average (percentage cell inhibition), Dmastoparan MDA-MB231 12.5uM” value [1] turn out when CC[C@H](C)[C@H](N)C(=O)N[C@@H](CC(N)=O)C(=O)N[C@@H](CC(C)C)C(=O)N1CCC[C@H]1C(=O)N[C@@H](C)C(=O)N[C@@H](CC(C)C)C(=O)N[C@@H](C)C(=O)N[C@@H](C)C(=O)N[C@@H](CC(C)C)C(=O)N[C@@H](C)C(=O)N[C@@H](CCCCN)C(=O)N[C@@H](CCCCN)C(=O)N[C@H](C(=O)N[C@@H](CC(C)C)C(N)=O)[C@@H](C)CC [P4] was run?
A: 10.9719%

Q: What about the “Average (percentage cell inhibition), Mastoparan PBMC” value [2] of the same compound?
A: -6.014%

Q: For CC[C@H](C)[C@H](N)C(=O)N[C@@H](CC(N)=O)C(=O)N[C@@H](CC(C)C)C(=O)N[C@@H](CCCCN)C(=O)NCC(=O)N[C@@H](CC(C)C)C(=O)N[C@@H](C)C(=O)N[C@@H](C)C(=O)N[C@@H](CC(C)C)C(=O)N[C@@H](C)C(=O)N[C@@H](CCCCN)C(=O)N[C@@H](CCCCN)C(=O)N[C@H](C(=O)N[C@@H](CC(C)C)C(N)=O)[C@@H](C)CC [G5], which “Average (percentage cell inhibition), Dmastoparan MDA-MB231 12.5uM” value [1] is on record?
A: 39.6978%

Q: What about the “Average (percentage cell inhibition), Mastoparan PBMC” value [2] of the same compound?
A: 4.313%

Q: How did the “Average (percentage cell inhibition), Dmastoparan MDA-MB231 12.5uM” value [1] turn out when CC[C@H](C)[C@H](N)C(=O)N[C@@H](CC(N)=O)C(=O)N[C@@H](CC(C)C)C(=O)N[C@H](C(=O)N[C@@H](C)C(=O)N[C@@H](CC(C)C)C(=O)N[C@@H](C)C(=O)N[C@@H](C)C(=O)N[C@@H](CC(C)C)C(=O)N[C@@H](C)C(=O)N[C@@H](CCCCN)C(=O)N[C@@H](CCCCN)C(=O)N[C@H](C(=O)N[C@@H](CC(C)C)C(N)=O)[C@@H](C)CC)[C@@H](C)O [T4] was run?
A: 29.8701%

Q: What about the “Average (percentage cell inhibition), Mastoparan PBMC” value [2] of the same compound?
A: 12.9948%

Q: With CC[C@H](C)[C@H](N)C(=O)N[C@@H](CC(N)=O)C(=O)N[C@@H](CC(C)C)C(=O)N[C@@H](CCCCN)C(=O)N[C@@H](C)C(=O)N[C@@H](CC(C)C)C(=O)N[C@@H](C)C(=O)N[C@@H](C)C(=O)N[C@@H](CC(C)C)C(=O)N[C@H](C(=O)N[C@@H](CCCCN)C(=O)N[C@@H](CCCCN)C(=O)N[C@H](C(=O)N[C@@H](CC(C)C)C(N)=O)[C@@H](C)CC)C(C)C [V10] as the compound, how does the “Average (percentage cell inhibition), Dmastoparan MDA-MB231 12.5uM” value [1] read?
A: 85.9235%

Q: And the “Average (percentage cell inhibition), Mastoparan PBMC” value [2]?
A: 37.352%

Q: Which results are given for CC[C@H](C)[C@H](N)C(=O)N[C@@H](CC(N)=O)C(=O)N[C@@H](CC(C)C)C(=O)N[C@@H](CCCCN)C(=O)N[C@@H](C)C(=O)N[C@@H](CC(C)C)C(=O)N[C@@H](C)C(=O)N[C@@H](C)C(=O)N[C@@H](CC(C)C)C(=O)N[C@@H](Cc1ccc(O)cc1)C(=O)N[C@@H](CCCCN)C(=O)N[C@@H](CCCCN)C(=O)N[C@H](C(=O)N[C@@H](CC(C)C)C(N)=O)[C@@H](C)CC [Y10]?
A: Average (percentage cell inhibition), Dmastoparan MDA-MB231 12.5uM [1]: 27.1013%; Average (percentage cell inhibition), Mastoparan PBMC [2]: 11.2083%

Q: Which results are given for CC[C@H](C)[C@H](N)C(=O)N[C@@H](CC(N)=O)C(=O)N[C@@H](CC(C)C)C(=O)N[C@@H](CCCCN)C(=O)N[C@@H](C)C(=O)N[C@@H](CC(C)C)C(=O)N[C@@H](C)C(=O)N[C@@H](C)C(=O)N[C@@H](CC(C)C)C(=O)N[C@@H](C)C(=O)N[C@@H](CCCCN)C(=O)N[C@@H](CCCCN)C(=O)N[C@H](C(=O)N[C@@H](Cc1c[nH]cn1)C(N)=O)[C@@H](C)CC [H14]?
A: Average (percentage cell inhibition), Dmastoparan MDA-MB231 12.5uM [1]: 14.7055%; Average (percentage cell inhibition), Mastoparan PBMC [2]: -11.4515%

Q: Which “Average (percentage cell inhibition), Dmastoparan MDA-MB231 12.5uM” value [1] does the source give for CC[C@H](C)[C@H](N)C(=O)N[C@@H](CC(N)=O)C(=O)N[C@@H](CC(C)C)C(=O)N[C@@H](CCCCN)C(=O)N[C@@H](C)C(=O)N[C@@H](CC(C)C)C(=O)N[C@@H](C)C(=O)N[C@@H](C)C(=O)N[C@@H](CC(C)C)C(=O)N[C@@H](C)C(=O)N[C@@H](CCCNC(=N)N)C(=O)N[C@@H](CCCCN)C(=O)N[C@H](C(=O)N[C@@H](CC(C)C)C(N)=O)[C@@H](C)CC [R11] here?
A: 37.1061%

Q: And the “Average (percentage cell inhibition), Mastoparan PBMC” value [2]?
A: 5.503%

Q: How did the “Average (percentage cell inhibition), Dmastoparan MDA-MB231 12.5uM” value [1] turn out when CC[C@H](C)[C@H](N)C(=O)N[C@@H](CCC(=O)O)C(=O)N[C@@H](CC(C)C)C(=O)N[C@@H](CCCCN)C(=O)N[C@@H](C)C(=O)N[C@@H](CC(C)C)C(=O)N[C@@H](C)C(=O)N[C@@H](C)C(=O)N[C@@H](CC(C)C)C(=O)N[C@@H](C)C(=O)N[C@@H](CCCCN)C(=O)N[C@@H](CCCCN)C(=O)N[C@H](C(=O)N[C@@H](CC(C)C)C(N)=O)[C@@H](C)CC [E2] was run?
A: 39.1083%

Q: And the “Average (percentage cell inhibition), Mastoparan PBMC” value [2]?
A: 11.8092%

Q: Which “Average (percentage cell inhibition), Dmastoparan MDA-MB231 12.5uM” value [1] does the source give for CC[C@H](C)[C@H](N)C(=O)N[C@@H](CCC(N)=O)C(=O)N[C@@H](CC(C)C)C(=O)N[C@@H](CCCCN)C(=O)N[C@@H](C)C(=O)N[C@@H](CC(C)C)C(=O)N[C@@H](C)C(=O)N[C@@H](C)C(=O)N[C@@H](CC(C)C)C(=O)N[C@@H](C)C(=O)N[C@@H](CCCCN)C(=O)N[C@@H](CCCCN)C(=O)N[C@H](C(=O)N[C@@H](CC(C)C)C(N)=O)[C@@H](C)CC [Q2] here?
A: 33.3572%

Q: What about the “Average (percentage cell inhibition), Mastoparan PBMC” value [2] of the same compound?
A: 13.2802%

Q: What does the source list for CC[C@H](C)[C@H](N)C(=O)N[C@@H](CC(N)=O)C(=O)N[C@@H](CC(C)C)C(=O)N[C@@H](CCCCN)C(=O)N[C@@H](C)C(=O)N[C@@H](CC(C)C)C(=O)N[C@@H](C)C(=O)N[C@@H](C)C(=O)N[C@@H](CC(C)C)C(=O)N[C@@H](C)C(=O)N[C@@H](CCCCN)C(=O)NCC(=O)N[C@H](C(=O)N[C@@H](CC(C)C)C(N)=O)[C@@H](C)CC [G12]?
A: Average (percentage cell inhibition), Dmastoparan MDA-MB231 12.5uM [1]: 17.8169%; Average (percentage cell inhibition), Mastoparan PBMC [2]: 13.7945%

Q: CC[C@H](C)[C@H](N)C(=O)N[C@@H](CC(N)=O)C(=O)N[C@@H](CC(C)C)C(=O)N[C@@H](CCCCN)C(=O)N[C@@H](C)C(=O)N[C@@H](CC(C)C)C(=O)N[C@@H](C)C(=O)N[C@@H](C)C(=O)N[C@@H](CC(C)C)C(=O)N[C@@H](C)C(=O)N[C@@H](CCCCN)C(=O)N[C@@H](CCCCN)C(=O)N[C@@H](CCC(=O)O)C(=O)N[C@@H](CC(C)C)C(N)=O [E13] was tested. Which “Average (percentage cell inhibition), Dmastoparan MDA-MB231 12.5uM” value [1] did it give?
A: 42.4043%

Q: And the “Average (percentage cell inhibition), Mastoparan PBMC” value [2]?
A: -2.907%
